What was measured:
Plasmodium falciparum [1] = assay: microbe, parasite or virus in culture; conditions: 3D7, 72 h
Description: Growth inhibition of Plasmodium falciparum 3D7 ring stage in infected erythrocytes after 72 hrs in DAPI fluorimetry

Plasmodium falciparum [2] = assay: microbe, parasite or virus in culture; conditions: Dd2, 72 h
Description: Growth inhibition of Plasmodium falciparum Dd2 ring stage infected erythrocytes after 72 hrs by DAPI fluorimetry

Plasmodium falciparum [3] = assay: (§1) Growth inhibition of Plasmodium falciparum ring stage in infected erythrocytes by DAPI growth assay; assay type: functional, organism-based
Plasmodium falciparum [4] = assay: Growth inhibition of Plasmodium falciparum as reduced [3H]hypoxanthine incorporation; assay type: functional, organism-based
Plasmodium falciparum [5] = assay: as §1; assay type: functional, organism-based; remark: listed apart in the source
Plasmodium falciparum [6] = assay: microbe, parasite or virus in culture; conditions: HB3, 72 h
Description: Growth inhibition of Plasmodium falciparum HB3 ring stage in infected erythrocytes after 72 hrs in DAPI fluorimetry

Structure (SMILES) | IC50 (Plasmodium falciparum [1]) [nM] | IC50 (Plasmodium falciparum [2]) [nM] | IC50 (Plasmodium falciparum [3]) [nM] | IC50 (Plasmodium falciparum [4]) [nM] | IC50 (Plasmodium falciparum [5]) [nM] | IC50 (Plasmodium falciparum [6]) [nM]
C[C@@H]1CC[C@H]2[C@@H](C)C(=O)O[C@@H]3O[C@@]4(C)CC[C@@H]1[C@]32OO4 [ARTEMISININ] | 10.8 | 12.3 | 10.8 | 10.1 | 9.67 | 9.7
O=C1C(O)=C([C@H]2CC[C@H](c3ccc(Cl)cc3)CC2)C(=O)c2ccccc21 [ATOVAQUONE] | – | – | 0.66 | 0.61 | 0.63 | –
OC(c1cc(C(F)(F)F)nc2c(C(F)(F)F)cccc12)C1CCCCN1 (stereo not drawn) [MEFLOQUINE] | 12.3 | 26 | – | – | – | 9.63
CCc1nc(N)nc(N)c1-c1ccc(Cl)cc1 [PYRIMETHAMINE] | 10 | 44.1 | – | – | – | 49.9
C=C[C@H]1CN2CC[C@H]1C[C@H]2[C@H](O)c1ccnc2ccc(OC)cc12 [QUININE] | – | – | 66.5 | 62.8 | 69.2 | –
